Data set [1] relates to Mouse hybridoma CAU 96. Nature of the data set: Batch T-flask culture of hybridoma with oligopeptide supplements (Example 2). It is filed as cell-based. As to conditions: for growth stimulating effect on the hybridoma cell line (in words): Tables 3 to 7. From the text: Cells: Mouse hybridoma CAU 96 producing monoclonal lgG2a
Starting viable cell density is 310000 (3.1*10^5) cells per ml.

Data set [2] deals with Mouse hybridoma CAU 96. Kind of data set: Amino acid analysis of the culture medium during cultivation of hybridoma cells with tetrapeptide.
Protocol: (§1) Cells: Mouse hybridoma CAU 96 producing monoclonal lgG2a antibody.
(§2) Medium: DMEM/F-12/RPMI 1640 (2:1:1) supplemented with Basal Medium Eagle (BME) amino acids, 2.0 mM glutamine, 15 mM HEPES (N-2-Hydroxyethylpiperazine-N′-2-ethanesulfonic acid), 2.0 g/l sodium bicarbonate and 0.4 mM ferric citrate.
(§3) Culture mode: 25 cm^3 T-flasks (Nunc) culture volume 6.0 ml, placed at 37° C. in an incubator with 5% CO^2; starting viable cell density is 3.1×10^5 cells per ml.
(§4) Preparation of samples of amino acid analysis: Cells are removed by low-speed centrifugation and macromolecular components are removed by ultrafiltration.
For data set [3], the system named is Mouse hybridoma CAU 96.
Protocol: as §1, §2, §3, §4
Data set [4] has as its system Mouse hybridoma CAU 96. The source holds these as a separate data set.
Protocol: Medium: DMEM/F-12/RPMI 1640 (2:1:1) supplemented with BME amino acids, MEM non essential amino acids, 2.0 mM glutamine, 15 mM HEPES, 2.0 g/L sodium bicarbonate and 0.4 mM ferric citrate.
Culture mode: 25 cm^2 T-flasks (Supplier: Nunc), culture volume 6.0 ml, placed at 37° C. in an incubator with 5% CO2; starting viable cell density is 3.1×10^5 cells per ml.
Setting [5] is: Table 4, Day 6, supplement 0.2% w/v.
[6] abbreviates: Table 3, Day 7, supplement 0.2% w/v.
[7] abbreviates: Table 5, Day 6, supplement 0.2% w/v.
Where [8] appears, read: Table 6, Day 6, supplement 0.1% w/v.
Where [9] appears, read: Table 6, Day 6, supplement 0.2% w/v.
[10] abbreviates: Table 4, Day 6, supplement 0.1% w/v.
Where [11] appears, read: Table 7, Day 6, supplement 0.1% w/v.
Setting [12] is: Table 7, Day 6, supplement 0.2% w/v.
[13] abbreviates: Table 7, Day 6, supplement 0.05% w/v.
[14] abbreviates: Table 5, Day 6, supplement 0.05% w/v.
[15] abbreviates: Table 5, Day 6, supplement 0.1% w/v.
Where [16] appears, read: Table 5, Day 6, supplement 0.3% w/v.

Like-named read-outs stand apart in the source and are kept apart here. Where a SMILES comes first, the peptide text is derived from it. Where no end group is shown, it is not given here. [ ]: non-standard residue; d: D form. βAla = NCCC(=O)O

With `C[C@H](N)C(=O)O` [Alanine, reference compound], in the data set with Mouse hybridoma CAU 96 [1], the “Viable cell number % of control” value is on record as 94 % of control and the “growth stimulating effect on the hybridoma cell line (in words)” value (from here on “growth stimulating effect”) is “insignificant”. Moreover, in the data set on Mouse hybridoma CAU 96 [1] (setting [5]), the Monoclonal antibody is 110 mg/L, the Viability was determined as 60% and the Viable cell number was 1030 cells/μL.

Take `NCC(=O)O` [Glycine, reference compound]: in the data set on Mouse hybridoma CAU 96 [1], the “Viable cell number % of control” value is 102 % of control and the “growth stimulating effect” value was “does not significantly stimulate cell growth”. Also, in the data set on Mouse hybridoma CAU 96 [1] (setting [6]), the Monoclonal antibody amounted to 160 mg/L, the Viability is 60% and the Viable cell number turned out to be 1080 cells/μL.

For `N[C@@H](CO)C(=O)O` [Serine, reference compound], in the data set on Mouse hybridoma CAU 96 [1], the “Viable cell number % of control” value is recorded as 104 % of control and the “growth stimulating effect” value is reported as “insignificant”. In the data set on Mouse hybridoma CAU 96 [1] (setting [7]), this compound showed a Monoclonal antibody of 111 mg/L, a Viability of 63% and a Viable cell number of 1190 cells/μL.

As for `C[C@H](N)C(=O)N[C@@H](C)C(=O)N[C@@H](C)C(=O)N[C@@H](C)C(=O)O` [Tetraalanine, Ala-Ala-Ala-Ala] (H-AAAA-OH; N-terminus and C-terminus assumed), the Viability in the data set on Mouse hybridoma CAU 96 [1] (0.1 % w/v) turned out to be 66%; in the data set with Mouse hybridoma CAU 96 [1] (0.2 % w/v), 72%. The “Amino acid concentration, Day 0” value in the data set on Mouse hybridoma CAU 96 [2] (Table 2, culture medium with tetraalanine, day 0) was 1.84. Also, the “Amino acid concentration, Day 4” value in the data set with Mouse hybridoma CAU 96 [2] (Table 2, culture medium with tetraalanine, day 4) turned out to be 1.28. Also, in the data set on Mouse hybridoma CAU 96 [2] (Table 2, day 4 minus day 0), the “Amino acid concentration, Difference” value is listed as −0.56.

Consider `NCC(=O)NCC(=O)NCC(=O)NCC(=O)O` [Tetraglycine, Gly-Gly-Gly-Gly] (H-GGGG-OH; N-terminus and C-terminus assumed), for which the “Amino acid concentration, Day 0” value with Mouse hybridoma CAU 96 [3] was 7.14 mM. Also, the “Amino acid concentration, Day 4” value in the data set on Mouse hybridoma CAU 96 [3] was determined as 6.55 mM. In addition, the “Viable cell number % of control” value in the data set on Mouse hybridoma CAU 96 [1] was 176 % of control. The Viability is recorded as 80% in the data set with Mouse hybridoma CAU 96 [1] (0.2 % w/v), 78% in the data set with Mouse hybridoma CAU 96 [4] (0.1 % w/v), 77% in the data set on Mouse hybridoma CAU 96 [4] (0.2 % w/v) and 80% in the data set on Mouse hybridoma CAU 96 [4] (0.3 % (w/v)).

For the compound `C[C@@H](O)[C@H](N)C(=O)O` [Threonine, reference compound], in the data set on Mouse hybridoma CAU 96 [1], the “Viable cell number % of control” value is recorded as 97 % of control. Further, in the data set with Mouse hybridoma CAU 96 [1] (setting [7]), the Monoclonal antibody turned out to be 114 mg/L, the Viability was 59% and the Viable cell number is 1100 cells/μL.

The compound `NCC(=O)NCC(=O)NCC(=O)O` [Triglycine, Gly-Gly-Gly] (H-Gly-Gly-Gly-OH) registered a Viability with Mouse hybridoma CAU 96 [1] (0.1 % w/v) of 78%. Further, the values for the Monoclonal antibody in the data set with Mouse hybridoma CAU 96 [1] (setting [6]), in the data set on Mouse hybridoma CAU 96 [1] (setting [8]) and in the data set on Mouse hybridoma CAU 96 [1] (setting [9]) were 160 mg/L, 98 mg/L and 89 mg/L, respectively. In addition, the Viable cell number with Mouse hybridoma CAU 96 [1] (setting [6]) stood at 1660 cells/μL; in the data set with Mouse hybridoma CAU 96 [1] (setting [8]), 1350 cells/μL; in the data set with Mouse hybridoma CAU 96 [1] (setting [9]), 1300 cells/μL.

For `NCCC(=O)O` [β-alanine, reference compound], in the data set with Mouse hybridoma CAU 96 [1], the “Viable cell number % of control” value is given as 106 % of control and the “growth stimulating effect” value is reported as “insignificant”. In the data set with Mouse hybridoma CAU 96 [1] (setting [7]), this compound showed a Monoclonal antibody of 105 mg/L, a Viability of 60% and a Viable cell number of 1210 cells/μL.

In the data set with Mouse hybridoma CAU 96 [1] (setting [10]), Ala-Ala-Ala [Trialanine] yielded a Monoclonal antibody of 130 mg/L, a Viability of 69% and a Viable cell number of 1390 cells/μL. Further, in the data set on Mouse hybridoma CAU 96 [1] (setting [5]), the Monoclonal antibody came to 132 mg/L, the Viability is listed as 70% and the Viable cell number is on record as 1420 cells/μL.

On to Diglycine, for which, in the data set on Mouse hybridoma CAU 96 [1], the “Viable cell number % of control” value is 114 % of control. In the data set on Mouse hybridoma CAU 96 [1] (setting [6]), this compound returned a Monoclonal antibody of 165 mg/L, a Viability of 70% and a Viable cell number of 1210 cells/μL.

In the data set with Mouse hybridoma CAU 96 [1] (setting [8]), Gly-Arg-Gly gave a Monoclonal antibody of 106 mg/L, a Viability of 65% and a Viable cell number of 1360 cells/μL. In the data set with Mouse hybridoma CAU 96 [1] (setting [9]), this compound gave a Monoclonal antibody of 121 mg/L, a Viability of 66% and a Viable cell number of 1270 cells/μL.

In the case of Gly-Asp-Gly, in the data set with Mouse hybridoma CAU 96 [1] (setting [8]), the Monoclonal antibody amounted to 98 mg/L, the Viability is given as 64% and the Viable cell number came to 1340 cells/μL. In the data set with Mouse hybridoma CAU 96 [1] (setting [9]), this compound came in with a Monoclonal antibody of 92 mg/L, a Viability of 70% and a Viable cell number of 1420 cells/μL.

As for Gly-Gly-Glu-Ala (GGEA), in the data set with Mouse hybridoma CAU 96 [1] (setting [11]), the Monoclonal antibody was found to be 100 mg/L, the Viability worked out at 82% and the Viable cell number was determined as 1350 cells/μL. In addition, in the data set with Mouse hybridoma CAU 96 [1] (setting [12]), the Monoclonal antibody was 113 mg/L, the Viability amounted to 77% and the Viable cell number was found to be 1280 cells/μL.

As for Gly-Gly-Gly-Gly-Gly [Pentaglycine], the “Viable cell number % of control” value in the data set on Mouse hybridoma CAU 96 [1] is given as 190 % of control. In the data set on Mouse hybridoma CAU 96 [1] (setting [6]), this compound showed a Monoclonal antibody of 165 mg/L, a Viability of 82% and a Viable cell number of 2020 cells/μL.

Turning to Gly-Gly-Gly-Gly-Gly-Gly [Hexaglycine], the “Viable cell number % of control” value in the data set with Mouse hybridoma CAU 96 [1] is reported as 183 % of control. In the data set with Mouse hybridoma CAU 96 [1] (setting [6]), this compound yielded a Monoclonal antibody of 160 mg/L, a Viability of 79% and a Viable cell number of 1940 cells/μL.

With Gly-Gly-His-Gly (GGHG), in the data set with Mouse hybridoma CAU 96 [1] (setting [11]), the Monoclonal antibody was determined as 93 mg/L, the Viability turned out to be 77% and the Viable cell number was found to be 1360 cells/μL. In the data set on Mouse hybridoma CAU 96 [1] (setting [12]), the Monoclonal antibody stood at 84 mg/L, the Viability was 71% and the Viable cell number was determined as 1180 cells/μL.

Take Gly-Gly-Lys-Ala (GGKA): in the data set with Mouse hybridoma CAU 96 [1] (setting [11]), the Monoclonal antibody is on record as 118 mg/L, the Viability was 79% and the Viable cell number is given as 1310 cells/μL. Moreover, in the data set on Mouse hybridoma CAU 96 [1] (setting [12]), the Monoclonal antibody amounted to 134 mg/L, the Viability is 78% and the Viable cell number was 1290 cells/μL.

In the data set with Mouse hybridoma CAU 96 [1] (setting [8]), Gly-His-Gly showed a Monoclonal antibody of 121 mg/L, a Viability of 65% and a Viable cell number of 1180 cells/μL. For the same compound, in the data set with Mouse hybridoma CAU 96 [1] (setting [9]), the Monoclonal antibody is listed as 144 mg/L, the Viability stood at 66% and the Viable cell number was 900 cells/μL.

Turning to Gly-Lys-Gly, in the data set on Mouse hybridoma CAU 96 [1] (setting [8]), the Monoclonal antibody stood at 128 mg/L, the Viability came to 67% and the Viable cell number was 1250 cells/μL. In addition, in the data set with Mouse hybridoma CAU 96 [1] (setting [9]), the Monoclonal antibody came to 154 mg/L, the Viability was 62% and the Viable cell number is 1100 cells/μL.

As to Gly-βAla-Gly-Gly (G[βAla]GG), in the data set on Mouse hybridoma CAU 96 [1] (setting [13]), the Monoclonal antibody is 121 mg/L, the Viability turned out to be 68% and the Viable cell number is 1100 cells/μL. In the data set with Mouse hybridoma CAU 96 [1] (setting [11]), the Monoclonal antibody came out at 129 mg/L, the Viability is on record as 65% and the Viable cell number is recorded as 1150 cells/μL. In the data set with Mouse hybridoma CAU 96 [1] (setting [12]), this compound showed a Monoclonal antibody of 150 mg/L, a Viability of 72% and a Viable cell number of 1270 cells/μL.

As to Ser-Ser-Ser [Triserine], the Monoclonal antibody in the data set with Mouse hybridoma CAU 96 [1] (setting [14]) came to 109 mg/L; in the data set on Mouse hybridoma CAU 96 [1] (setting [15]), 112 mg/L; in the data set with Mouse hybridoma CAU 96 [1] (setting [7]), 126 mg/L; in the data set on Mouse hybridoma CAU 96 [1] (setting [16]) it was 142 mg/L. The Viability with Mouse hybridoma CAU 96 [1] (setting [14]) is on record as 61%; in the data set on Mouse hybridoma CAU 96 [1] (setting [15]) it was 65%; in the data set with Mouse hybridoma CAU 96 [1] (setting [7]), 70%; in the data set on Mouse hybridoma CAU 96 [1] (setting [16]) it was 78%. In addition, the Viable cell number in the data set on Mouse hybridoma CAU 96 [1] (setting [14]) is 1200 cells/μL; with Mouse hybridoma CAU 96 [1] (setting [15]) it was 1340 cells/μL; with Mouse hybridoma CAU 96 [1] (setting [7]), 1550 cells/μL; in the data set with Mouse hybridoma CAU 96 [1] (setting [16]), 1610 cells/μL.

As for Thr-Thr-Thr [Trithreonine], in the data set with Mouse hybridoma CAU 96 [1] (setting [14]), the Monoclonal antibody is recorded as 122 mg/L, the Viability is 67% and the Viable cell number is recorded as 1310 cells/μL. In the data set on Mouse hybridoma CAU 96 [1] (setting [15]), this compound gave a Monoclonal antibody of 130 mg/L, a Viability of 70% and a Viable cell number of 1370 cells/μL. In the data set on Mouse hybridoma CAU 96 [1] (setting [7]), this compound had a Monoclonal antibody of 152 mg/L, a Viability of 73% and a Viable cell number of 1450 cells/μL.

The values above are taken from patent US7101664B2, “Bioactive oligopeptides” (Polymun Scientific Immunbiologische Forschung GmbH, priority 1999, dated 2006).
